Measured values reported in patent US9718819B2 (Merck Sharp & Dohme Corp., priority 2012, dated 2017).

target: HIV-1 RT wild-type enzyme (Human immunodeficiency virus type 1 group M subtype B (isolate HXB2) (HIV-1), UniProt P04585); assay: HIV-1 reverse transcriptase inhibitory activity (RT polymerase assay); type: biochemical; settings: not given
Procedure: Determination of HIV-1 Reverse Transcriptase Inhibitory Activity
The heterodimeric nucleic acid substrate used in the HIV-1 RT polymerase reactions was generated by annealing the DNA primer, biotinylated pD500 (Sigma Aldrich, USA, 5′-biotin-ttg aaa tga ctg cgg tac ggc-3′), SEQ ID NO. 1 to the nucleotide RNA template t500 (derived from hepatitis C virus [HCV] sequence, IBA, Germany, 5′-[…]-3′), SEQ ID NO 2). […] The mixture was then preincubated on an orbital shaker for 30 min at room temperature in microtiter plates (Costar 3365, Corning, USA). A polymerization reaction was initiated by the addition of RNA template/pD500 DNA primer hybrid (16.6 nM final of RNA/DNA hybrid) and dNTPs (2 μM dATP, dGTP, dCTP and 66.6 nM Ru-dUTP (Meso Scale Discovery, USA)). Plate was sealed and incubated for 5-10 min at room temperature on an orbital shaker. Plate was then incubated for 90 min at 37° C. and reactions quenched with 60 μl quenching buffer (50 mM EDTA, 0.7% BSA, 0.7% Tween-20, 0.017% sodium azide in PBS). The resulting solution was incubated at room temperature for an additional 5 min and then 50 μL was transferred to pre-blocked Avidin plates (L15AA, Meso Scale Discovery). Each well of Avidin plate was blocked for 1 h at room temperature with 100 μL 5% BSA in PBS. Blocking solution was removed by tapping vigorously on filter paper to remove all excess liquid. Reaction on pre-blocked avidin plate proceeded for 60 min at room temperature and then contents removed by tapping vigorously on filter paper to remove all excess liquid. After washing plate 3 times with 150 μL 1×PBS and blotting dry between cycles, 150 μL 1× Read Buffer T (4× Read Buffer T, Meso Scale Discovery) was added and incubated for 5 min at room temperature before counting on a Sector Imager […] (Meso Scale Discovery). Titration curves and IC50 values were calculated using a four parameter logisitc fit according to standard procedures. Briefly, % Inhibition=100×((sample raw value)−(mean value of the low control or 0% inhibition))/((mean value of wells representing 100% inhbition)−(mean value of 0% inhbition)). In this assay, low control wells contain DMSO (0% inhbition) and 100% inhibition wells contain 1 μM efavirenz.

Row | SMILES | IC50 [nM]
1 | N#Cc1cc(Cl)cc(Oc2c(C(F)(F)F)ncn(Cc3cc(CO)c(=O)[nH]n3)c2=O)c1 [Example 12, 3-chloro-5-((1-((5-(hydroxymethyl)-6-oxo-1,6-dihydropyridazin-3-yl)methyl)-6-oxo-4-(trifluoromethyl)-1,6-dihydropyrimidin-5-yl)oxy)benzonitrile] | 32

same assay, conditions: HIV-1 RT wild-type enzyme 83 pM; RNA-dependent DNA polymerase activity; read-out: IC50

Row | SMILES | IC50 [nM]
2 | N#Cc1cc(Cl)cc(Oc2c(C(F)(F)F)ncn(Cc3n[nH]c(=O)c4cccnc34)c2=O)c1 [Example 1, 3-chloro-5-((6-oxo-1-((5-oxo-5,6-dihydropyrido[2,3-d]pyridazin-8-yl)methyl)-4-(trifluoromethyl)-1,6-dihydropyrimidin-5-yl)oxy)benzonitrile] | 191
3 | N#Cc1cc(Cl)cc(Oc2c(C(F)(F)F)ncn(Cc3cnc(O)cn3)c2=O)c1 [Example 2, 3-chloro-5-((1-((5-hydroxypyrazin-2-yl)methyl)-6-oxo-4-(trifluoromethyl)-1,6-dihydropyrimidin-5-yl)oxy)benzonitrile] | 118
4 | Cn1cc(Cn2cnc(C(F)(F)F)c(Oc3cc(Cl)cc(C#N)c3)c2=O)ncc1=O [Example 3, 3-chloro-5-((1-((4-methyl-5-oxo-4,5-dihydropyrazin-2-yl)methyl)-6-oxo-4-(trifluoromethyl)-1,6-dihydropyrimidin-5-yl)oxy)benzonitrile] | 33
5 | N#Cc1cc(Cl)cc(Oc2c(C(F)(F)F)ncn(Cc3ncc[nH]c3=O)c2=O)c1 [Example 4, 3-chloro-5-((6-oxo-1-((3-oxo-3,4-dihydropyrazin-2-yl)methyl)-4-(trifluoromethyl)-1,6-dihydropyrimidin-5-yl)oxy)benzonitrile] | 124
6 | N#Cc1cc(Cl)cc(Oc2c(C(F)(F)F)ncn(Cc3ccn[nH]c3=O)c2=O)c1 [Example 5, 3-chloro-5-((6-oxo-1-((3-oxo-2,3-dihydropyridazin-4-yl)methyl)-4-(trifluoromethyl)-1,6-dihydropyrimidin-5-yl)oxy)benzonitrile] | 6
7 | [2H]C([2H])(c1ccc(=O)[nH]n1)n1cnc(C(F)(F)F)c(Oc2cc(Cl)cc(C#N)c2)c1=O [Example 8] | 9
8 | N#Cc1cc(Cl)cc(Oc2c(C(F)(F)F)ncn(Cc3cc(C4CC(F)(F)C4)c(=O)[nH]n3)c2=O)c1 [Example 9, 3-chloro-5-((1-((5-(3,3-difluorocyclobutyl)-6-oxo-1,6-dihydropyridazin-3-yl)methyl)-6-oxo-4-(trifluoromethyl)-1,6-dihydropyrimidin-5-yl)oxy)benzonitrile] | 109
9 | CC(C)c1cc(Cn2cnc(C(F)(F)F)c(Oc3cc(Cl)cc(C#N)c3)c2=O)n[nH]c1=O [Example 10, 3-chloro-5-((1-((5-isopropyl-6-oxo-1,6-dihydropyridazin-3-yl)methyl)-6-oxo-4-(trifluoromethyl)-1,6-dihydropyrimidin-5-yl)oxy)benzonitrile] | 7
10 | CC(C)(O)c1cc(Cn2cnc(C(F)(F)F)c(Oc3cc(Cl)cc(C#N)c3)c2=O)n[nH]c1=O [Example 11, 3-chloro-5-((1-((5-(2-hydroxypropan-2-yl)-6-oxo-1,6-dihydropyridazin-3-yl)methyl)-6-oxo-4-(trifluoromethyl)-1,6-dihydropyrimidin-5-yl)oxy)benzonitrile] | 124
11 | Cc1ncn(Cc2ccc(=O)[nH]n2)c(=O)c1Oc1cc(Cl)cc(C#N)c1 [Example 13, 3-chloro-5-((4-methyl-6-oxo-1-((6-oxo-1,6-dihydropyridazin-3-yl)methyl)-1,6-dihydropyrimidin-5-yl)oxy)benzonitrile] | 29
12 | CC(O)c1cc(Cn2cnc(C(F)(F)F)c(Oc3cc(Cl)cc(C#N)c3)c2=O)n[nH]c1=O (centres unmarked) [Example 14, 3-chloro-5-((1-((5-(1-hydroxyethyl)-6-oxo-1,6-dihydropyridazin-3-yl)methyl)-6-oxo-4-(trifluoromethyl)-1,6-dihydropyrimidin-5-yl)oxy)benzonitrile] | 109
13 | CC(F)c1cc(Cn2cnc(C(F)(F)F)c(Oc3cc(Cl)cc(C#N)c3)c2=O)n[nH]c1=O (centres unmarked) [Example 15, 3-chloro-5-((1-((5-(1-fluoroethyl)-6-oxo-1,6-dihydropyridazin-3-yl)methyl)-6-oxo-4-(trifluoromethyl)-1,6-dihydropyrimidin-5-yl)oxy)benzonitrile] | 13
14 | N#Cc1cc(Cl)cc(Oc2c(C(F)(F)F)ncn(Cc3cc(CF)c(=O)[nH]n3)c2=O)c1 [Example 16, 3-chloro-5-((1-((5-(fluoromethyl)-6-oxo-1,6-dihydropyridazin-3-yl)methyl)-6-oxo-4-(trifluoromethyl)-1,6-dihydropyrimidin-5-yl)oxy)benzonitrile] | 12
15 | N#Cc1cc(Cl)cc(Oc2c(C(F)(F)F)ncn(Cc3cc(C(O)C4CC4)c(=O)[nH]n3)c2=O)c1 (centres unmarked) [Example 17, 3-chloro-5-((1-((5-(cyclopropyl(hydroxy)methyl)-6-oxo-1,6-dihydropyridazin-3-yl)methyl)-6-oxo-4-(trifluoromethyl)-1,6-dihydropyrimidin-5-yl)oxy)benzonitrile] | 179
16 | N#Cc1cc(Cl)cc(Oc2c(C(F)(F)F)ncn(Cc3ccc(=O)[nH]n3)c2=O)c1Cl [Example 18, 2,5-dichloro-3-((6-oxo-1-((6-oxo-1,6-dihydropyridazin-3-yl)methyl)-4-(trifluoromethyl)-1,6-dihydropyrimidin-5-yl)oxy)benzonitrile] | 5
17 | N#Cc1cc(F)cc(Oc2c(C(F)(F)F)ncn(Cc3ccc(=O)[nH]n3)c2=O)c1 [Example 19, 3-fluoro-5-((6-oxo-1-((6-oxo-1,6-dihydropyridazin-3-yl)methyl)-4-(trifluoromethyl)-1,6-dihydropyrimidin-5-yl)oxy)benzonitrile] | 31
18 | N#Cc1cc(Oc2c(C(F)(F)F)ncn(Cc3ccc(=O)[nH]n3)c2=O)cc(C(F)(F)F)c1 [Example 20, 3-((6-oxo-1-((6-oxo-1,6-dihydropyridazin-3-yl)methyl)-4-(trifluoromethyl)-1,6-dihydropyrimidin-5-yl)oxy)-5-(trifluoromethyl) benzonitrile] | 24
19 | O=c1ccc(Cn2cnc(C(F)(F)F)c(Oc3cc(Cl)cc(C(F)(F)F)c3)c2=O)n[nH]1 [Example 21, 6-((5-(3-chloro-5-(trifluoromethyl)phenoxy)-6-oxo-4-(trifluoromethyl)pyrimidin-1(6H)-yl)methyl)pyridazin-3(2H)-one] | 29
20 | N#Cc1cc(Cl)cc(Oc2c(C(F)(F)F)ncn(Cc3cc(-c4ccccc4)c(=O)[nH]n3)c2=O)c1 [Example 22] | 3
21 | Cn1nc(Cn2cnc(C(F)(F)F)c(Oc3cc(Cl)cc(C#N)c3)c2=O)cc(Br)c1=O [Example 23] | 38
22 | N#Cc1cc(Cl)cc(Oc2c(C(F)(F)F)ncn(Cc3cc(-c4ccc(OC(F)(F)F)cc4)c(=O)[nH]n3)c2=O)c1 [Example 24, 3-chloro-5-((6-oxo-1-((6-oxo-5-(4-(trifluoromethoxy)phenyl)-1,6-dihydropyridazin-3-yl)methyl)-4-(trifluoromethyl)-1,6-dihydropyrimidin-5-yl)oxy)benzonitrile] | 24
23 | N#Cc1cc(Cl)cc(Oc2c(C(F)(F)F)ncn(Cc3cc(-c4ccccc4F)c(=O)[nH]n3)c2=O)c1 [Example 25, 3-chloro-5-((1-((5-(2-fluorophenyl)-6-oxo-1,6-dihydropyridazin-3-yl)methyl)-6-oxo-4-(trifluoromethyl)-1,6-dihydropyrimidin-5-yl)oxy)benzonitrile] | 9
24 | N#Cc1cc(Cl)cc(Oc2c(C(F)(F)F)ncn(Cc3cc(-c4cccc(F)c4)c(=O)[nH]n3)c2=O)c1 [Example 26, 3-chloro-5-((1-((5(3-fluorophenyl)-6-oxo-1,6-dihydropyridazin-3-yl)methyl)-6-oxo-4-(trifluoromethyl)-1,6-dihydropyrimidin-5-yl)oxy)benzonitrile] | 5
25 | N#Cc1cc(Cl)cc(Oc2c(C(F)(F)F)ncn(Cc3cc(-c4cc(F)cc(Cl)c4)c(=O)[nH]n3)c2=O)c1 [Example 27, 3-chloro-5-((1-((5-(3-chloro-5-fluorophenyl)-6-oxo-1,6-dihydropyridazin-3-yl)methyl)-6-oxo-4-(trifluoromethyl)-1,6-dihydropyrimidin-5-yl)oxy)benzonitrile] | 14
26 | N#Cc1cc(Cl)cc(Oc2c(C(F)(F)F)ncn(Cc3cc(-c4ccc(Cl)cc4)c(=O)[nH]n3)c2=O)c1 [Example 28, 3-chloro-5-((1-((5-(4-chlorophenyl)-6-oxo-1,6-dihydropyridazin-3-yl)methyl)-6-oxo-4-(trifluoromethyl)-1,6-dihydropyrimidin-5-yl)oxy)benzonitrile] | 5
